Tests used:
[1] = tested on: human prostate cancer LNCaP cells; experiment: Cytotoxic action on cancer cells (WST-8, 96 hr); format: cell-based; conditions: Homo sapiens, LNCaP, 96 h, read-out: LNCaP cytotoxic activity: IC50
Outline: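 10% FBS/RPMI1640; overnight plating, 37° C/5% CO2; compound from DMSO diluted in medium; WST-8 viable count vs no-compound control; IC50 by two-point linear interpolation around 50% survival.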

[2] = molecular target: BRD4 protein (Homo sapiens (Human), UniProt O60885); experiment: BRD4 protein degradation inducing action in cancer cells (immunofluorescence, Operetta); format: cell-based; conditions: LNCaP cells, 6 hr treatment, fluorescence intensity
Outline: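 DC50 = compound concentration reducing BRD4 immunofluorescence to 50% of untreated cells, interpolated between the two flanking concentrations. Treatment: LNCaP cells, 6 hr, 10% FBS/RPMI1640, 37° C. Cells were then fixed, permeabilized, stained with anti-BRD4 and Alexa Fluor 488 or 546 secondaries, and imaged.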

| SMILES | DC50 [2] [nM] | IC50 [1] [nM] |
| --- | --- | --- |
| COC(=O)C[C@@H]1N=C(c2ccc(-c3ccc(C(=O)N[C@H](C(=O)N4C[C@H](O)C[C@H]4C(=O)N[C@@H](CO)c4ccc(-c5scnc5C)cc4)C(C)(C)C)cc3)cc2)c2c(sc(C)c2C)-n2c(C)nnc21 [Example 215, methyl {(6S)-4-[4′-({(2S)-1-[(2S,4R)-4-hydroxy-2-({(1R)-2-hydroxy-1-[4-(4-methyl-1,3-thiazol-5-yl)phenyl]ethyl}carbamoyl)pyrrolidin-1-yl]-3,3-dimethyl-1-oxobutan-2-yl}carbamoyl)[1,1′-biphenyl]-4-yl]-2,3,9-trimethyl-6H-thieno[3,2-f][1,2,4]triazolo[4,3-a][1,4]diazepin-6-yl}acetate] | 0.33 | 0.31 |
| COC(=O)C[C@@H]1N=C(c2ccc(-c3ccc(C(=O)N[C@H](C(=O)N4C[C@H](O)C[C@H]4C(=O)N[C@@H](C)c4ccc(-c5scnc5C)cc4)C(C)(C)C)s3)cc2)c2c(sc(C)c2C)-n2c(C)nnc21 [Example 141, methyl [(6S)-4-{4-[5-({(2S)-1-[(2S,4R)-4-hydroxy-2-({(1S)-1-[4-(4-methyl-1,3-thiazol-5-yl)phenyl]ethyl}carbamoyl)pyrrolidin-1-yl]-3,3-dimethyl-1-oxobutan-2-yl}carbamoyl)thiophen-2-yl]phenyl}-2,3,9-trimethyl-6H-thieno[3,2-f][1,2,4]triazolo[4,3-a][1,4]diazepin-6-yl]acetate] | 0.72 | 0.38 |
| COC(=O)C[C@@H]1N=C(c2ccc(-c3ccc(O[C@H]4C[C@@H](C(=O)N[C@H](C(=O)N5C[C@H](O)C[C@H]5C(=O)N[C@@H](C)c5ccc(-c6scnc6C)cc5)C(C)(C)C)C4)nc3)cc2)c2c(sc(C)c2C)-n2c(C)nnc21 [Example 162, methyl {(6S)-4-[4-(6-{[cis-3-({(2S)-1-[(2S,4R)-4-hydroxy-2-({(1S)-1-[4-(4-methyl-1,3-thiazol-5-yl)phenyl]ethyl}carbamoyl)pyrrolidin-1-yl]-3,3-dimethyl-1-oxobutan-2-yl}carbamoyl)cyclobutyl]oxy}pyridin-3-yl)phenyl]-2,3,9-trimethyl-6H-thieno[3,2-f][1,2,4]triazolo[4,3-a] [1,4]diazepin-6-yl}acetate] | 0.3 | 0.37 |

Molecules with a lower DC50 [2], results first:

| DC50 [2] [nM] | SMILES | IC50 [1] [nM] |
| --- | --- | --- |
| 0.11 | COC(=O)C[C@@H]1N=C(c2ccc(-c3ccc4sc(C(=O)N[C@H](C(=O)N5C[C@H](O)C[C@H]5C(=O)N[C@@H](C)c5ccc(-c6scnc6C)cc5)C(C)(C)C)nc4c3)cc2)c2c(sc(C)c2C)-n2c(C)nnc21 [Example 179, methyl [(6S)-4-{4-[2-({(2S)-1-[(2S,4R)-4-hydroxy-2-({(1S)-1-[4-(4-methyl-1,3-thiazol-5-yl)phenyl]ethyl}carbamoyl)pyrrolidin-1-yl]-3,3-dimethyl-1-oxobutan-2-yl}carbamoyl)-1,3-benzothiazol-5-yl]phenyl}-2,3,9-trimethyl-6H-thieno[3,2-f][1,2,4]triazolo[4,3-a][1,4]diazepin-6-yl]acetate] | 0.21 |
| 0.075 | COC(=O)C[C@@H]1N=C(c2ccc(-c3cccc(C(=O)N[C@H](C(=O)N4C[C@H](O)C[C@H]4C(=O)N[C@@H](C)c4ccc(-c5scnc5C)cc4)C(C)(C)C)n3)cc2)c2c(sc(C)c2C)-n2c(C)nnc21 [Example 113, methyl [(6S)-4-{4-[6-({(2S)-1-[(2S,4R)-4-hydroxy-2-({(1S)-1-[4-(4-methyl-1,3-thiazol-5-yl)phenyl]ethyl}carbamoyl)pyrrolidin-1-yl]-3,3-dimethyl-1-oxobutan-2-yl}carbamoyl)pyridin-2-yl]phenyl}-2,3,9-trimethyl-6H-thieno[3,2-f][1,2,4]triazolo[4,3-a][1,4]diazepin-6-yl]acetate] | 0.096 |

Source: patent publication US11542273B2, “Amide compound having bet proteolysis-inducing action and medicinal application thereof” (MITSUBISHI TANABE PHARMA CORPORATION, priority 2018, dated 2023)
